In EPA's ToxValDB 9.5 (doi:10.2903/j.efsa.2017.4903):

How the values were obtained:
Rattus norvegicus = settings: for LOAEL: subchronic, duration: 90 days, clinical chemistry; for NOAEL: reproduction developmental
Folsomia candida = settings: chronic/long-term; duration: 28 days; mortality
Hypoaspis aculeifer = settings: chronic/long-term; duration: 14 days; reproduction
Pleurozium sp. = settings: acute; duration: 72 hours; other
Pontoscolex corethrurus = settings: chronic/long-term
Apis mellifera = settings: acute, mortality
Colinus virginianus = settings: reproduction developmental
Coturnix japonica = settings: acute; oral; mortality
Danio rerio = settings: chronic; reproduction

**Q.** How did the LOAEL (Rattus norvegicus) turn out when `Nc1ccc(O)c(Cl)c1` [3-Chloro-4-hydroxyaniline] was run?
**A.** 10 mg/kg-day

**Q.** How did the NOEC (Folsomia candida) turn out when `Nc1cccc(Cl)c1` [3-Chloroaniline] was run?
**A.** 9.5 mg/kg

**Q.** And the NOEC (Hypoaspis aculeifer)?
**A.** 50 mg/kg

**Q.** And the NOEC (Pleurozium sp.)?
**A.** 1 mg/L

**Q.** What about the NOEC (Pontoscolex corethrurus; reproduction) of the same compound?
**A.** 125 mg/kg

**Q.** And the LOAEL (Rattus norvegicus)?
**A.** 10 mg/kg-day

**Q.** Which results are given for `CC(C)OC(=O)Nc1cccc(Cl)c1` [Chlorpropham]?
**A.** LD50 (Apis mellifera; dermal): 96.1 µg/piece; LD50 (Apis mellifera; oral, unspecified): 505 µg/piece; NOAEL (Canidae; acute, oral, Beagle, mobility): 50 mg/kg-day; NOAEL (Canidae; chronic, duration: 60 weeks, oral, diet, Beagle, organ weight): 5 mg/kg-day; NOAEL (Canidae; short-term, duration: 28 days, Dog Other): 5 mg/kg-day; NOAEL (Colinus virginianus): 94.7 mg/kg-day; LD50 (Coturnix japonica): > 2000 mg/kg-day; NOEC (Danio rerio): 0.32 mg/L; NOEC (Folsomia candida): 17.2 mg/kg; NOEC (Pontoscolex corethrurus; growth): 30 mg/kg; LD50 (Rattus norvegicus; acute, oral, mortality): 4200 mg/kg-day; NOAEL (Rattus norvegicus; body weight): 50 mg/kg-day; NOAEL (Rattus norvegicus; immunology): 44.5 mg/kg-day
